In patent US7947703B2, “Phenanthridinium derivatives as DNA binding agents” (University Court of the University of Glasgow, priority 2003, dated 2011):
Entries after “also recorded” stand apart in the source; their conditions may differ. Marks after values point to notes of the source that are not given here.

Columns and labels:
[1] = system: human ovarian tumour cell line A2780; test: growth (tetrazolium dye-based microtitration) cytotoxicity assay, A2780; format: cell-based; details: for IC50: cisplatin-sensitive line, 24 hours drug exposure, 3 day recovery, mean±SEM of triplicate plates; for cytotoxicity (in words): overall statement across A2780, A2780/cp70 and MCP1
Method: (§1) Compounds were tested in a growth assay with a 24 hours drug exposure and a 3 day recovery period. Cell lines used were human ovarian tumour cell line A2780 and 2 Cisplatin resistant derivatives cell lines A27080/cp70 and MCP1. IC50 is the concentration of drug required to reduce the surviving cell number to 50% of that of the control untreated cells. Results are from one experiment and are the mean±SEM of the triplicate plates.
(§2) DIP cytotoxicity was determined by a tetrazolium dye-based microtitration assay. DNA affinity measurements of DIPs were undertaken using Isothermal Titration Calorimetry (ITC).

[2] = system: Cisplatin resistant cell line MCP1; test: growth (tetrazolium dye-based microtitration) cytotoxicity assay, MCP1; format: cell-based, human; details: for IC50: cisplatin-resistant line, 24 hours drug exposure, 3 day recovery, mean±SEM of triplicate plates; for RF2: rapport of the IC50 between A2780 and MCP1, the lower RF the better
Method: as §1, §2

[3] = system: Cisplatin resistant cell line A2780/cp70; test: growth (tetrazolium dye-based microtitration) cytotoxicity assay, A2780/cp70; format: cell-based, human; details: for IC50: cisplatin-resistant line, 24 hours drug exposure, 3 day recovery, mean±SEM of triplicate plates; for RF1: rapport of the IC50 between A2780 and A2780/cp70, the lower RF the better
Method: as §1, §2

Calf DNA = test: DNA affinity by Isothermal Titration Calorimetry (ITC), Calf DNA; format: binding; design: key: *^1: No measurable binding via ITC
Method: as §2

Salmon DNA = test: DNA affinity by Isothermal Titration Calorimetry (ITC), Salmon DNA; format: binding; design: key to Ka Salmon DNA: *^1: No measurable binding via ITC; details: for DNA affinity (in words): DNA source not given
Method: as §2

| melting point | SMILES | IC50 ([1]; Homo sapiens, A2780) [µM] | IC50 ([2]; Homo sapiens) [µM] | RF2 [2] | IC50 ([3]; Homo sapiens, A2780/CP70) [µM] | RF1 [3] | Ka Calf DNA (Calf DNA) | Ka Salmon DNA (Salmon DNA) | cytotoxicity (in words) [1] | DNA affinity (in words) (Salmon DNA) | cytotoxicity on cisplatin-sensitive cell line A2780 (in words) [1] | IC50 [1] [µM] | IC50 [2] [µM] | IC50 [3] [µM] |
| --- | --- | --- | --- | --- | --- | --- | --- | --- | --- | --- | --- | --- | --- | --- |
| 167 to 168 °C | [Br-].c1ccc2c(c1)c[n+](CCN1CCCCC1)c1ccccc21 |  |  |  |  |  |  |  |  |  |  |  |  |  |
| 260 to 261 °C | [Br-].[Br-].c1ccc2c(c1)c[n+](CCN1CCN(CC[n+]3cc4ccccc4c4ccccc43)CC1)c1ccccc21 |  |  |  |  |  |  |  |  |  |  |  |  |  |
| 182 to 183 °C | COc1ccc(CSCC[n+]2cc3ccccc3c3ccccc32)cc1.[Br-] |  |  |  |  |  |  |  |  |  |  |  |  |  |
| 250 to 251 °C (dec.) | CC(C)N1CC[n+]2c1c1ccccc1c1ccccc12.[Br-] |  |  |  |  |  |  |  |  |  |  |  |  |  |
|  | [Br-].[Br-].[Br-].c1ccc2c(c1)c1[n+](c3ccccc23)CCN1[C@H]1C[C@@H](N2CC[n+]3c2c2ccccc2c2ccccc23)C[C@@H](N2CC[n+]3c2c2ccccc2c2ccccc23)C1 [AP3-42] | 8.02 ± 1.14 | 9.44 ± 0.58 | 1.2 | 7.29 ± 0.38 | 0.9 |  |  |  |  |  |  |  |  |
|  | COc1ccc(CN2CC[n+]3c2c2ccccc2c2ccccc23)cc1.[Br-] [AP3-56, 1-(4-Methoxy-benzyl)-2,3-dihydro-1H-imidazo[1,2-f]phenanthridinium bromide] | 1.53 ± 0.09 | 1.06 ± 0.06 | 0.7 | 1.56 ± 0.06 | 1.0 |  |  |  |  |  |  |  |  |
|  | [Br-].c1ccc2c(c1)c1[n+](c3ccccc23)CCN1C1CC1 [AP3-80] | 5.07 ± 1.06 | 5.68 ± 0.86 | 1.1 | 4.54 ± 0.7 | 0.9 |  |  |  |  |  |  |  |  |
|  | COc1ccc(N2CC[n+]3c2c2ccccc2c2ccccc23)cc1.[Br-] [AP3-83] | 1.45 ± 0.15 | 0.5 ± 0.04 | 0.3 | 1.1 ± 0.13 | 0.8 | 3.46 ± 1726 M^−1 (10^4) | 3.73 ± 1827 M^−1 (10^4) |  |  |  |  |  |  |
|  | [Br-].c1ccc2c(c1)c[n+](CCN1CCCCC1)c1ccccc21 [AP4-20] | 9.77 ± 1.04 | 6.3 ± 0.09 | 0.6 | 16.5 ± 0.8 | 1.7 |  |  |  |  |  |  |  |  |
|  | COc1ccc(CN2CC[n+]3c2ccc2ccccc23)cc1 [AP4-44, 3-(4-Methoxy-benzyl)-2,3-dihydro-1H-imidazo[1,2-a]quinolin-10-ylium bromide] | 30.9 ± 2.5 | 11 ± 1 | 0.4 | 12.6 ± 0.6 | 0.4 | *^1 | *^1 | much less cytotoxicity | cancel any measurable DNA affinity |  |  |  |  |
|  | Br.Br.c1ccc2c(c1)c[n+](CCN1CCN(CC[n+]3cc4ccccc4c4ccccc43)CC1)c1ccccc21 [AP4-48] | 18.4 ± 1.23 | 11.7 ± 1.51 | 0.6 | 16.8 ± 0.54 | 0.9 |  |  |  |  |  |  |  |  |
|  | [Br-].[Br-].[Br-].c1ccc2c(c1)c[n+](CCN1CCCN(CC[n+]3cc4ccccc4c4ccccc43)CCCN(CC[n+]3cc4ccccc4c4ccccc43)CCC1)c1ccccc21 [AP4-55] | 2.28 ± 0.23 | 1.13 ± 0.12 | 0.5 | 1.59 ± 0.15 | 0.7 |  |  | good cytotoxicity |  |  |  |  |  |
|  | OCCN1CC[n+]2c1c1ccccc1c1ccccc12.[Br-] [AP6-5] | 11.7 ± 1.2 | 7.8 ± 1.47 | 0.7 | 13.7 ± 1.5 | 1.2 | 1.53 ± 838.9 M^−1 (10^4) | 1.84 ± 660 M^−1 (10^4) |  |  |  |  |  |  |
|  | COc1ccc([C@@H](C)N2CC[n+]3c2c2ccccc2c2ccccc23)cc1 [AP6-96, 1-[1-(4-Methoxy-phenyl)-ethyl]-2,3-dihydro-1H-imidazo[1,2-f]phenanthridin-4-ylium bromide] | 1.03 ± 0.06 | 0.53 ± 0.04 | 0.5 | 1.15 ± 0.07 | 1.1 | 4.14 ± 2685 M^−1 (10^4) | 5.17 ± 1948 M^−1 (10^4) |  |  |  |  |  |  |
|  | COC(=O)[C@H](Cc1ccccc1)N1CC[n+]2c1c1ccccc1c1ccccc12.[Br-] [AP8-56] | 35.8 ± 4.2 | 20 ± 1.2 |  | 21.6 ± 1.8 |  | *^1 | *^1 | moderate activity | does not have any measurable binding property | moderate cytotoxicity |  |  |  |
|  | O=C(CN1CC[n+]2c1c1ccccc1c1ccccc12)N1CCN(C(=O)CN2CC[n+]3c2c2ccccc2c2ccccc23)CC1.[Br-].[Br-] [AP8-66] | 11.7 ± 1.1 | 6.84 ± 0.89 | 0.6 | 15.6 ± 2.1 | 1.3 |  |  |  |  |  |  |  |  |

| melting point | SMILES | IC50 ([1]; Homo sapiens, A2780) [µM] | IC50 ([2]; Homo sapiens) [µM] | RF2 [2] | IC50 ([3]; Homo sapiens, A2780/CP70) [µM] | RF1 [3] | Ka Calf DNA (Calf DNA) | Ka Salmon DNA (Salmon DNA) | cytotoxicity (in words) [1] | DNA affinity (in words) (Salmon DNA) | cytotoxicity on cisplatin-sensitive cell line A2780 (in words) [1] | IC50 [1] [µM] | IC50 [2] [µM] | IC50 [3] [µM] |
| --- | --- | --- | --- | --- | --- | --- | --- | --- | --- | --- | --- | --- | --- | --- |
|  | [Br-].[Br-].c1ccc2c(c1)c1[n+](c3ccccc23)CCN1CCN1CCN(CCN2CC[n+]3c2c2ccccc2c2ccccc23)CC1 [AP9-5] | 18.3 ± 2.8 | 3.94 ± 0.32 | 0.2 | 5.65 ± 0.2 | 0.3 |  |  |  |  |  |  |  |  |
|  | [Br-].c1ccc(CN2CC[n+]3c2c2ccccc2c2ccccc23)cc1 [AP9-45] | 2.32 ± 0.33 | 1.29 ± 0.11 | 0.6 | 2.26 ± 0.23 | 1.0 |  |  |  |  |  |  |  |  |
|  | Br.Br.Br.O=C(CN1CC[n+]2c1c1ccccc1c1ccccc12)N1CCCN(C(=O)CN2CC[n+]3c2c2ccccc2c2ccccc23)CCCN(C(=O)CN2CC[n+]3c2c2ccccc2c2ccccc23)CCC1 [AP9-82] | 15.6 ± 2.76 | 7.59 ± 0.32 | 0.5 | 4.57 ± 0.18 | 0.3 |  |  |  |  |  |  |  |  |
|  | CCCN1CC[n+]2c1c1ccccc1c1ccccc12 [AP10-22, 1-Propyl-2,3-dihydro-1H-imidazo[1,2-f]phenanthridin-4-ylium bromide] | 6.71 ± 0.86 | 2.86 ± 0.32 | 0.4 | 5.11 ± 0.19 | 0.8 | 3.67 ± 1310 M^−1 (10^4) | 3.11 ± 2203 M^−1 (10^4) | the least active of all the alkyl DIP derivatives |  |  |  |  |  |
|  | Br.Br.Br.Br.c1ccc2c(c1)c1[n+](c3ccccc23)CCN1CC[N+]12CC[N+](CCN3CC[n+]4c3c3ccccc3c3ccccc34)(CC1)CC2 [AP11-36] | 2.34 ± 0.25 | 3.07 ± 0.52 | 1.3 | 3.4 ± 0.23 | 1.5 |  |  |  |  |  |  |  |  |
|  | COc1ccc2c(c[n+](C)c3c4cc5c(cc4ccc23)OCO5)c1OC.[Cl-] [Chelerythrine, reference compound] | 4.63 ± 0.52 | 2.29 ± 0.15 | 0.5 | 1.79 ± 0.02 | 0.4 |  |  |  |  |  |  |  |  |
|  | N.N.[Cl][Pt][Cl] [Cisplatin, reference compound] |  |  | 1.7 |  | 5.8 |  |  |  |  |  | 0.25 ± 0.02 | 0.43 ± 0.06 | 1.46 ± 0.04 |
|  | CC[n+]1c(-c2ccccc2)c2cc(N)ccc2c2ccc(N)cc21.[Br-] [EtBr, ethidium bromide, reference compound] | 0.3 ± 0.039 | 0.45 ± 0.008 | 1.5 | 0.658 ± 0.118 | 2.2 | 9.31 ± 3353 M^−1 (10^4) | 12.9 ± 4533 M^−1 (10^4) |  |  |  |  |  |  |
|  | COC(=O)CN1CC[n+]2c1c1ccccc1c1ccccc12.[Br-] [LS1-8] | 48.4 ± 8.5 | 33 ± 1.6 | 0.7 | 54.9 ± 3.4 | 1.1 |  |  | moderate activity |  |  |  |  |  |
|  | C[C@H](CO)N1CC[n+]2c1c1ccccc1c1ccccc12.[Br-] [LS1-52] | 2.86 ± 0.37 | 4.77 ± 0.09 | 1.7 | 8.43 ± 0.37 | 3 | 1.42 ± 785 M^−1 (10^4) | 1.73 ± 989.3 M^−1 (10^4) |  |  |  |  |  |  |
|  | COc1ccc(CN2CC[n+]3c2c2ccccc2c2cc(Br)ccc23)cc1.[Br-] [LS1-72] | 0.823 ± 0.219 | 0.997 ± 0.034 | 1.2 | 1.67 ± 0.18 | 2 |  |  |  |  |  |  |  |  |
|  | [Br-].[Br-].c1ccc2c(c1)c1[n+](c3ccccc23)CCN1CCNCCN1CC[n+]2c1c1ccccc1c1ccccc12 [LS1-81] | 32.4 ± 2 | 25.4 ± 2.9 | 0.8 | 15.1 ± 0.9 | 0.5 |  |  |  |  |  |  |  |  |
|  | COC(=O)[C@@H](Cc1ccccc1)N1CC[n+]2c1c1ccccc1c1ccccc12.[Br-] [LS2-6] | 31.2 ± 4.2 | 34.2 ± 4.3 | 1.1 | 26.4 ± 3.3 | 0.9 |  |  | moderate activity; also recorded: moderate cytotoxicity in the three lines |  | moderate cytotoxicity |  |  |  |
|  | [Br-].c1ccc(C(CCN2CC[n+]3c2c2ccccc2c2ccccc23)c2ccccc2)cc1 [LS2-10] | 2.06 ± 0.34 | 2.03 ± 0.31 | 1 | 1.73 ± 0.12 | 0.8 |  |  |  |  |  |  |  |  |
|  | CCc1ccc(N2CC[n+]3c2c2ccccc2c2ccccc23)cc1.[Br-] [LS2-11] | 1.54 ± 0.12 | 1.11 ± 0.16 | 0.7 | 1.25 ± 0.14 | 0.8 |  |  |  |  |  |  |  |  |
